Results reported in patent publication US20180222836A1, “Process for the Preparation of Pharmaceutical Grade Ferric Citrate” (Lupin Limited, priority 2015, published 2018).

Test: BET active specific surface area (U.S. Pharmacopeia General Chapter <846>)
Assay type: physicochemical
Details: pharmaceutical grade ferric citrate, dried powder from one-pot process
Method: According to the present invention, the pharmaceutical grade ferric citrate having BET surface area in the range of […]. the method of analysis for BET surface are of the ferric citrate is performed as per U.S. Pharmacopeia General Chapter <846>.

Substance | BET Active Specific Surface Area
ferric citrate [EXAMPLE-1] | 6.51 m^2/gm
ferric citrate [EXAMPLE-2] | 6.47 m^2/gm
